pIC50: −log10 of the molar value. In brackets after ≈: the same amount, converted by molar mass.
Assays:
[1] = Plasma protein binding in human at 2 uM incubated for 1 hr by LC/MS analysis; format: ADME, cell-free; conditions: read-out: PPB (converted)
[2] = target: Poly [ADP-ribose] polymerase 1 (Homo sapiens, UniProt P09874); assay: Inhibition of PARP1 (unknown origin)
[3] = Efflux ratio of apparent permeability across basolateral to apical side over apical to basolateral side in MDCKII-MDR1 cells incubated for 2 hrs by LC-MS analysis; format: ADME, cell-based, Canis lupus familiaris; conditions: dog, MDCK-MDR1
[4] = Plasma protein binding in monkey at 2 uM incubated for 1 hr by LC/MS analysis; format: ADME, cell-free, Macaca mulatta; conditions: rhesus monkey, read-out: PPB (converted)
[5] = Apparent permeability across basolateral to apical side in MDCKII-MDR1 cells incubated for 2 hrs by LC-MS analysis; format: ADME, cell-based, Canis lupus familiaris; conditions: dog, MDCK-MDR1
NCI-H1373 = assay: Antitumor activity against human NCI-H1373 cells xenografted in […] SCID mouse model assessed as tumor growth inhibition at 30 mg/kg, po administered everyday measured after 21 days relative to control; format: functional; conditions: NCI-H1373, 504 h, time 21 day, read-out: TGI
[6] = Apparent permeability across apical to basolateral side in MDCKII-MDR1 cells incubated for 2 hrs by LC-MS analysis; format: ADME, cell-based, Canis lupus familiaris; conditions: dog, MDCK-MDR1
[7] = Toxicity in […] SCID mouse model xenografted with human NCI-H1373 cells assessed as body weight loss at 30 mg/kg, po measured for 21 days; format: organism-based; conditions: in vivo, 504 h, time 21 day
[8] = Cmax in fasted Beagle dog at 10 mg/kg, po measured for 24 hrs by LC-MS analysis; format: ADME, organism-based, Canis lupus familiaris; conditions: in vivo
[9] = target: T1, Protein mono-ADP-ribosyltransferase PARP11 (Homo sapiens, UniProt Q9NR21); assay: Inhibition of PARP11 (unknown origin)
T1 sequence (Q9NR21 whole entry): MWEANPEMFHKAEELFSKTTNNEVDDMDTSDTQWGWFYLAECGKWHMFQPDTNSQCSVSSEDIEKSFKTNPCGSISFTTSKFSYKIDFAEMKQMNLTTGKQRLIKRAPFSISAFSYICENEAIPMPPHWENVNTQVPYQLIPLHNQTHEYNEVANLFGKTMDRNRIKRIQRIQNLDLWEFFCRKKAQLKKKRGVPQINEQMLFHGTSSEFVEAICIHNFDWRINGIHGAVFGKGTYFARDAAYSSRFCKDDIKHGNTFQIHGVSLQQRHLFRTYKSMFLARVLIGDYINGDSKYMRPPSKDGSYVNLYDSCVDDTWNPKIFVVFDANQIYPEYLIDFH

[10] = Thermodynamic solubility of compound at pH 6.5; format: physicochemical; conditions: buffer, read-out: Therm_solubility
[11] = Passive permeability in MDCKII-MDR1 cells incubated for 2 hrs by LC-MS analysis; format: ADME, cell-based, Canis lupus familiaris; conditions: dog, MDCK-MDR1, read-out: permeability
[12] = Metabolic stability in human liver microsomes assessed as intrinsic clearance preincubated for 5 mins followed by NADPH addition measured for 1 hr by LC-MS analysis; format: ADME, Microsome; conditions: time 65 min, read-out: CLH
[13] = Kinetic solubility of compound at pH 7.4; format: physicochemical; conditions: buffer, read-out: Kinetic_solubility
[14] = Half life in fasted ICR mouse at 10 mg/kg, po measured for 24 hrs by LC-MS analysis; format: ADME, organism-based; conditions: in vivo
[15] = Half life in fasted Beagle dog at 10 mg/kg, po measured for 24 hrs by LC-MS analysis; format: ADME, organism-based, Canis lupus familiaris; conditions: in vivo
MDA-MB-436 = assay: Antiproliferative activity against human MDA-MB-436 cells assessed as inhibition of cell viability incubated for 7 days by luminescence based assay; format: functional; conditions: MDA-MB-436, 168 h
Cytochrome P450 1A2 = target: T2, Cytochrome P450 1A2 (Homo sapiens, UniProt P05177); assay: Inhibition of CYP1A2 in human liver microsomes using phenacetin as substrate preincubated for 10 mins followed by substrate addition measured for 30 mins by LC-MS analysis; format: ADME, Microsome
T2 sequence (P05177 whole entry): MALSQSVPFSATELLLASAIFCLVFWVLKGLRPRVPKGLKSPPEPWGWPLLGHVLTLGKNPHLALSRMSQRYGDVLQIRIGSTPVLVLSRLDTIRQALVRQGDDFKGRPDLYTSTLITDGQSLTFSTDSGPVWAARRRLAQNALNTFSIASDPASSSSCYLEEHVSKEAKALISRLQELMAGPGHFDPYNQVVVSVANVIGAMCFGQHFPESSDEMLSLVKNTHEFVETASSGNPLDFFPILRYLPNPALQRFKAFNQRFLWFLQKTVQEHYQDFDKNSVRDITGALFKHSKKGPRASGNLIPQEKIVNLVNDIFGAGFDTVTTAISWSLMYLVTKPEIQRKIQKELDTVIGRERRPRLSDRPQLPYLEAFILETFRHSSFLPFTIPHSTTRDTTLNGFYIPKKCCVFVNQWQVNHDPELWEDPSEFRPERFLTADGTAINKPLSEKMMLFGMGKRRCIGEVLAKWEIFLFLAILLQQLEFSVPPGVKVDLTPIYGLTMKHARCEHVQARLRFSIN

[16] = Metabolic stability in dog liver microsomes assessed as intrinsic clearance preincubated for 5 mins followed by NADPH addition measured for 1 hr by LC-MS analysis; format: ADME, Canis lupus familiaris, Microsome; conditions: time 65 min, read-out: CLH
[17] = Volume of distribution at steady state in fasted ICR mouse at 2 mg/kg, iv measured for 24 hrs by LC-MS analysis; format: ADME, organism-based; conditions: in vivo, read-out: Vdss
[18] = Toxicity in […] SCID mouse model xenografted with human NCI-H1373 cells assessed as animal death at 30 mg/kg, po measured for 21 days; format: organism-based; conditions: in vivo, 504 h, time 21 day
[19] = target: Poly [ADP-ribose] polymerase 2 (Homo sapiens, UniProt Q9UGN5); assay: Inhibition of PARP2 (unknown origin)
Sequence of Poly [ADP-ribose] polymerase 2 (Q9UGN5 whole entry): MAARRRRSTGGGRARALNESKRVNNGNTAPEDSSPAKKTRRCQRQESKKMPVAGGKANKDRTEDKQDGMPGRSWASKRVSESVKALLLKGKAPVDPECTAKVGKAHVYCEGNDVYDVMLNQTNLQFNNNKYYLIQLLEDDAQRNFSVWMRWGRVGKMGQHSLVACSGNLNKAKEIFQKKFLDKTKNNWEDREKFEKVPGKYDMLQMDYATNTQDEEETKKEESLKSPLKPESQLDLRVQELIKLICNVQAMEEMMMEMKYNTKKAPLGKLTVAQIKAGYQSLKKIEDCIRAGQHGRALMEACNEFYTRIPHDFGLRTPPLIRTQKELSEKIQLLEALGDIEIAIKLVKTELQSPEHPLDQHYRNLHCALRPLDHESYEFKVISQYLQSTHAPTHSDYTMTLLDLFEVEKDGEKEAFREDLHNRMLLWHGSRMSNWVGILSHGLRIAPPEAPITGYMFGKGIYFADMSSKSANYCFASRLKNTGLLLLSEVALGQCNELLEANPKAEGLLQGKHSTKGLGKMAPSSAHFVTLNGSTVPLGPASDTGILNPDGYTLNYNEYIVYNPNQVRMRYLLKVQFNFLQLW

[20] = Tmax in fasted ICR mouse at 10 mg/kg, po measured for 24 hrs by LC-MS analysis; format: ADME, organism-based; conditions: in vivo
[21] = Plasma protein binding in mouse at 2 uM incubated for 1 hr by LC/MS analysis; format: ADME, cell-free; conditions: read-out: PPB (converted)
[22] = Half life in fasted ICR mouse at 2 mg/kg, iv measured for 24 hrs by LC-MS analysis; format: ADME, organism-based; conditions: in vivo
[23] = Metabolic stability in rat liver microsomes assessed as intrinsic clearance preincubated for 5 mins followed by NADPH addition measured for 1 hr by LC-MS analysis; format: ADME, Microsome; conditions: time 65 min, read-out: CLH
Cytochrome P450 2C9 = Cytochrome P450 2C9 (Homo sapiens, UniProt P11712); assay: Inhibition of CYP2C9 in human liver microsomes using diclofenac as substrate preincubated for 10 mins followed by substrate addition measured for 30 mins by LC-MS analysis; format: ADME, Microsome
Sequence of Cytochrome P450 2C9 (P11712 whole entry): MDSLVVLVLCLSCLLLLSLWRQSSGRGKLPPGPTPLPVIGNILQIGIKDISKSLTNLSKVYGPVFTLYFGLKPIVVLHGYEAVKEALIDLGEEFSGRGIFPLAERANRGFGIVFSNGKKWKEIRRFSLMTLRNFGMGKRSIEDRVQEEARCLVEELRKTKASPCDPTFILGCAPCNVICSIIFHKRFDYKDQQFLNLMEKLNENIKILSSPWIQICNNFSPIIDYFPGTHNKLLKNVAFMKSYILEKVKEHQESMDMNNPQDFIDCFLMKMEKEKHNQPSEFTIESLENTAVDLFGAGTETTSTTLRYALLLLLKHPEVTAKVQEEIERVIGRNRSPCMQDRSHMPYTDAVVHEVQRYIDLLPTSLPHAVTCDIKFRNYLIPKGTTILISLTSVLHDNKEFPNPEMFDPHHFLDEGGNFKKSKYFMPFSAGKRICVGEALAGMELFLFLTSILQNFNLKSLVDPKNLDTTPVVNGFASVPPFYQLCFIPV

[24] = Volume of distribution at steady state in fasted Beagle dog at 2 mg/kg, iv measured for 24 hrs by LC-MS analysis; format: ADME, organism-based, Canis lupus familiaris; conditions: in vivo, read-out: Vdss
[25] = Oral bioavailability in fasted ICR mouse at 10 mg/kg measured for 24 hrs by LC-MS analysis; format: ADME, organism-based; conditions: in vivo
[26] = Tmax in fasted Beagle dog at 10 mg/kg, po measured for 24 hrs by LC-MS analysis; format: ADME, organism-based, Canis lupus familiaris; conditions: in vivo
[27] = target: Protein mono-ADP-ribosyltransferase PARP14 (Homo sapiens, UniProt Q460N5); assay: Inhibition of PARP14 (unknown origin)
Sequence of Protein mono-ADP-ribosyltransferase PARP14 (Q460N5 whole entry): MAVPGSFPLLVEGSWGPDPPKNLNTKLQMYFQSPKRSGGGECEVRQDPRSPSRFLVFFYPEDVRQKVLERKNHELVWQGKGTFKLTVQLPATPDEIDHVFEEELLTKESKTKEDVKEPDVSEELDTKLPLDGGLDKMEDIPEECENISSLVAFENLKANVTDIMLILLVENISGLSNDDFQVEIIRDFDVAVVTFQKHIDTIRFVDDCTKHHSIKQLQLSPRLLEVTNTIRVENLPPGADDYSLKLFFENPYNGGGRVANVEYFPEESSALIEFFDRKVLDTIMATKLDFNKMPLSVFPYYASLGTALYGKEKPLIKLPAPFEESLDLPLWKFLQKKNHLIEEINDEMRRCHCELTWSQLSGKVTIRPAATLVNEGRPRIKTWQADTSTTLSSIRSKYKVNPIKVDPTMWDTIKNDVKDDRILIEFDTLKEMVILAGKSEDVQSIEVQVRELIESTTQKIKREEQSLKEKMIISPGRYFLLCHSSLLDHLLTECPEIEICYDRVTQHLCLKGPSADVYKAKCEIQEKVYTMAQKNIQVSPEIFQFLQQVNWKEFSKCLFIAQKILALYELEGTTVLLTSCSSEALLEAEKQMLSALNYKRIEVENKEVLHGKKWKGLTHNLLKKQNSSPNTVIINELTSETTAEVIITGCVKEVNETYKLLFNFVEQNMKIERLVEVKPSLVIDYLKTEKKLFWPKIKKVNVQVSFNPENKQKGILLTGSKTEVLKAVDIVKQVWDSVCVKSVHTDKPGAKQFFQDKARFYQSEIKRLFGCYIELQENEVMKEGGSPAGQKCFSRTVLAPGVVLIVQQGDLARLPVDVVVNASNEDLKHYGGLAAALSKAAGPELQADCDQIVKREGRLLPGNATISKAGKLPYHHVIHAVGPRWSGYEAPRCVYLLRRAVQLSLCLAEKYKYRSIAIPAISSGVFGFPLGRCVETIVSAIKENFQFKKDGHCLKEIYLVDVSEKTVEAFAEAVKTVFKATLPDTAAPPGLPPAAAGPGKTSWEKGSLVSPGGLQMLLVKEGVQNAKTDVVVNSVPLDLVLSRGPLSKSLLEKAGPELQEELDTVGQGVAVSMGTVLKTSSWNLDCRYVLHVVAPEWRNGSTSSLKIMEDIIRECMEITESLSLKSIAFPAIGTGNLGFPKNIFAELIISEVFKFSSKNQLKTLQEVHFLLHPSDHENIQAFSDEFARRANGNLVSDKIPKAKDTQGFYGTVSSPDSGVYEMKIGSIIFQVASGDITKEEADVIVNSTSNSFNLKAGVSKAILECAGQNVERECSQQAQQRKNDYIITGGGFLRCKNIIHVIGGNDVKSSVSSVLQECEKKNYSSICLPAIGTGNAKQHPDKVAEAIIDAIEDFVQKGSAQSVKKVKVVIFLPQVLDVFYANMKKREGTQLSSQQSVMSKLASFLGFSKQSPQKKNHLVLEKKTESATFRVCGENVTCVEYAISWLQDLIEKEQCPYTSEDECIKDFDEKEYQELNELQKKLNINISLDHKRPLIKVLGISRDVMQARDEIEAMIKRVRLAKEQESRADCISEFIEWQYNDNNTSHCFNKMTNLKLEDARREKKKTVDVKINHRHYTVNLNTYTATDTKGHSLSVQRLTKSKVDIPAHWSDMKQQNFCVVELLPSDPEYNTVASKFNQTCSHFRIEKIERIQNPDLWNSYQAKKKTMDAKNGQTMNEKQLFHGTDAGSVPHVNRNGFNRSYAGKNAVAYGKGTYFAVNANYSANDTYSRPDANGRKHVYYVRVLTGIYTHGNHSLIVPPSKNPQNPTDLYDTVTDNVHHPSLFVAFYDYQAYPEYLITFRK

[28] = AUC in fasted Beagle dog at 2 mg/kg, iv measured for 24 hrs by LC-MS analysis; format: ADME, organism-based, Canis lupus familiaris; conditions: Beagle, in vivo

Sequence of Poly [ADP-ribose] polymerase 1 (P09874 whole entry): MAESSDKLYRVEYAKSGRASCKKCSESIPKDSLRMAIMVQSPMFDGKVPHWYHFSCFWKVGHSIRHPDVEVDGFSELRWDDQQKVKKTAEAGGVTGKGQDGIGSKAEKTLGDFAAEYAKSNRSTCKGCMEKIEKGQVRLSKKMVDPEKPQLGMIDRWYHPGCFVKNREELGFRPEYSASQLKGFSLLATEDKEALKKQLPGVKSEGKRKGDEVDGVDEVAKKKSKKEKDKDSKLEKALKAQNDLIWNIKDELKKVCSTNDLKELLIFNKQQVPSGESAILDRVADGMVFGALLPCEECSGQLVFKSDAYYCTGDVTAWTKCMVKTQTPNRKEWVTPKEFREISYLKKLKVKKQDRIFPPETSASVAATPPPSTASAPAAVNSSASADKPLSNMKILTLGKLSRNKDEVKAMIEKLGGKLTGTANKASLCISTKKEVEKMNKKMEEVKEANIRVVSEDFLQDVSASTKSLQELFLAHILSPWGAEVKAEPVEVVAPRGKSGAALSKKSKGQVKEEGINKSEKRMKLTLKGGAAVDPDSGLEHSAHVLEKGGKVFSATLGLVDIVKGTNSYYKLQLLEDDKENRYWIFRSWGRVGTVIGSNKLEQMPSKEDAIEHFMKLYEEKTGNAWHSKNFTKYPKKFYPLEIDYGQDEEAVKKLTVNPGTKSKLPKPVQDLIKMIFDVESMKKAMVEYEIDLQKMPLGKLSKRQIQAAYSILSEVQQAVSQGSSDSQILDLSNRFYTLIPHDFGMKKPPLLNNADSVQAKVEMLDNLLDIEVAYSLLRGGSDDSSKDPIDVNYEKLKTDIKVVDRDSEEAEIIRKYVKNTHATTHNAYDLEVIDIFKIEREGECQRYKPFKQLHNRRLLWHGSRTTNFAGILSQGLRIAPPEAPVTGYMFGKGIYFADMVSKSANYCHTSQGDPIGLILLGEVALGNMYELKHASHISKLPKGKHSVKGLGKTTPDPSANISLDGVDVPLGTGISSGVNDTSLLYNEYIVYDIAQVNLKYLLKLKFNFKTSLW

O=C(CCOC[C@@H]1CCN1c1cn[nH]c(=O)c1C(F)(F)F)N1CCN2c3ncc(C(F)(F)F)cc3OC[C@@H]2C1
fraction unbound at 1 h, 2 µM [1]: 0.002 | pIC50 [2]: 6.31 | efflux ratio at 2 h [3]: 16.3 | fraction unbound at 1 h, 2 µM [4]: 0.004 | Papp B→A at 2 h [5]: 3.3 ×10⁻⁶ cm/s | inhibition in vivo at 30 mg/kg (NCI-H1373): 75.2% | Papp A→B at 2 h [6]: 0.202 ×10⁻⁶ cm/s | Activity [7]: Non-Toxic | Cmax [8]: 2300 ng/mL | pIC50 [9]: < 6.00 | solubility thermodynamic [10]: 113 µg/mL (≈ 201 µM) | Papp at 2 h [11]: 0.852 ×10⁻⁶ cm/s | CLint scaled [12]: 19.8 mL/min/kg | solubility kinetic [13]: 158 µM (≈ 88.9 µg/mL) | t1/2 [14]: 222 min | t1/2 [15]: 216 min | pIC50 (MDA-MB-436): < 5.00 | pIC50 (Cytochrome P450 1A2): < 4.52 | CLint scaled [16]: 9.1 mL/min/kg | Vd [17]: 1.77 L/kg | Activity [18]: Non-Toxic | pIC50 [19]: 6.66 | Tmax [20]: 24 min | fraction unbound at 1 h, 2 µM [21]: 0.019 | half-life [22]: 42 min | CLint scaled [23]: 88.8 mL/min/kg | pIC50 (Cytochrome P450 2C9): 5.70 | Vd [24]: 0.948 L/kg | bioavailability [25]: 33.9% | Tmax [26]: 24.6 min | pIC50 [27]: < 6.00 | AUC at 24 h [28]: 3480 ng·h/mL

Reference: ChEMBL document CHEMBL5634130, “Exploring the structural-activity relationship of hexahydropyrazino[1,2-d]pyrido[3,2-b][1,4]oxazine derivatives as potent and orally-bioavailable PARP7 inhibitors” (Eur J Med Chem, 2023)
